Patent publication US20100009920A1, “TTK AS TUMOR MARKER AND THERAPEUTIC TARGET FOR LUNG CANCER” (priority 2006, published 2010)
“Also recorded” adds a separate entry of the source. Read-outs that look alike come from different tables or passages of the source. Values belong to the compound of their own block, whether it stands above or below them.

What was measured:
A549 cells = test: Microscopic observation of cell morphology (phase contrast images); type: cell-based, human; settings: non-treated cells as control
Method: (§1) The oligo-siRNAs (Dharmacon, Inc., Lafayette, Colo.) ([…]) were transfected into appropriate lung-cancer cell lines using 30 micro-1 of Lipofectamine 2000 (Invitrogen, Carlsbad, Calif.) following the manufacturer's protocol. The ribonucleotide sequences corresponding to following sequences were used as the oligo-siRNA.
The endogenous association between TTK and EGFR in lung cancer cells was also investigated by immunoprecipitaion experiment using extracts from A549 cells, and the interaction between these two proteins regardless the EGF-stimulation was detected (FIG. 4b). To further examine the relevance of TTK to EGFR signaling, TTK or EGFR function in A549 cells were suppressed and cell morphology was microscopically observed.

TTK [1] = test: In vitro kinase assay, phosphorylation of active-rhEGFR by recombinant TTK; type: biochemical, human; settings: active-rhEGFR pre-treated with inhibitor, recombinant TTK present
Text: The full-length cDNA of TTK was subcloned into pFastBac HT vector. The recombinant shuttle vector was transformed into the baculovirus genome (bacmid DNA) in DH10Bac competent cells (Invitrogen) by using Tn7 site-specific transposition according to the minufacture's instructions for the Bac-to-Bac expression system (Invitrogen). The recombinant bacmid DNA was isolated, purified, transfected into Sf9 cells (Invitrogen) (recombinant baculovirus), and used for next infection. Log-phase Sf-9 cells were infected with recombinant baculovirus at a multiplicity of infection (MOI) of 1, and then infected Sf-9 cells were grown in suspension at 27° C. for 72 hours. Extracts of Sf-9 cells were collected and the His fusion proteins were purified using HiTrap HP column (GE Healthcare Bio-sciences) using standard protocols. […] TTK-KD was cloned into pGEX6T vector (GE Healthcare Bio-sciences). GST fusion protein was expressed in E. coli stain BL21 and purified by Glutathione Sepharose 4B (GE Healthcare Bio-sciences) using standard protocols. […]
The EGFR tyrosine phosphorylation sites were further evaluated by TTK using GST-tagged proteins containing various cytoplasmic region of EGFR as substrates (EGFR-DEL1, −DEL2, and −DEL3; FIG. 4e). […]

[2] = system: catalytically-active recombinant GST-tagged human EGFR (active-rhEGFR); test: In vitro kinase assay, autophosphorylation of active-rhEGFR (western blot with anti-phospho-tyrosine antibodies); type: biochemical; settings: in the presence of ATP, no recombinant TTK
HEK293 cells [3] = test: MTT assay of TTK- or mock-stable transfectants of HEK293 transfected with RNAi-EGFR; type: cell-based
Method: as §1
TTK-expressing stable transfectants were established according to a standard protocol. Using FuGENE 6 Transfection Reagent (Roche Diagnostics), we transfected HEK293 and NIH3T3 cells with plasmids expressing TTK (pCAGGS-n3FH-TTK) or mock plasmids (pCAGGS-n3FH). Transfected cells were cultured in DMEM containing 10% FCS and G418, then individual colonies were trypsinized and screened for stable transfectants by a limiting-dilution assay. Expression of TTK was determined in each clone by RT-PCR, western blotting, and immunostaining. HEK293 or NIH3T3 transfectants that stably expressed TTK were seeded onto 6-well plates (5×10^4 cells/well), and maintained in medium containing 10% FCS and 0.4 mg/ml G418 for 7 days. At each time point, cell proliferation was evaluated by the MTT assay using Cell Counting Kits (WAKO). All experiments were done in triplicate.

HEK293 cells [4] = test: Matrigel invasion assay of TTK- or mock-stable transfectants of HEK293 transfected with RNAi-EGFR; type: cell-based
TTK [5] = test: TTK protein level in A549 cells after RNAi (western blot); type: cell-based, human
Method: (§2) Cells were lysed with RIPA buffer [50 mM Tris-HCl (pH 8.0), 150 mM NaCl, 1% NP-40, 0.5% deoxychorate-Na, 0.1% SDS] containing Protease Inhibitor Cocktail Set III (CALBIOCHEM) and phosphatase inhibitor (1 mM sodium fluoride, 1 mM sodium orthovanadate, 2 mM imidazole, 4 mM sodium tartrate). Cytoplasmic and nuclear extractions were isolated by NE-PER Nuclear and Cytoplasmic Extraction Reagents (PIERCE). Protein samples were separated by SDS-polyacrylamide gels and electroblotted onto Hybond-ECL nitrocellulose membranes (GE Healthcare Bio-sciences). […] Antigen-antibody complexes were detected using secondary antibodies conjugated to horseradish peroxidase (GE Healthcare Bio-sciences). […]

PLCγ1 and p44/42 MAPK = test: Western blot of PLCγ and p44/42 MAPK in A549 cells after RNAi; type: cell-based, human
Method: (§3) Cells were lysed with RIPA buffer [50 mM Tris-HCl (pH 8.0), 150 mM NaCl, 1% NP-40, 0.5% deoxychorate-Na, 0.1% SDS] containing Protease Inhibitor Cocktail Set III (CALBIOCHEM) and phosphatase inhibitor (1 mM sodium fluoride, 1 mM sodium orthovanadate, 2 mM imidazole, 4 mM sodium tartrate). Cytoplasmic and nuclear extractions were isolated by NE-PER Nuclear and Cytoplasmic Extraction Reagents (PIERCE). Protein samples were separated by SDS-polyacrylamide gels and electroblotted onto Hybond-ECL nitrocellulose membranes (GE Healthcare Bio-sciences). Blots were incubated with a mouse monoclonal anti-Mps1 (TTK) antibody (Upstate), rabbit polyclonal anti-phospho-EGFR antibodies (Tyr-845, Tyr-992, Tyr-1045, Tyr-1068, […], and Tyr-1173; Cell Signaling Technology, Inc.), a rabbit polyclonal anti-EGFR antibody (Cell Signaling Technology, Inc.), a rabbit polyclonal anti-phospho-PLCgamma1 (Tyr-771) antibody (Cell Signaling Technology, Inc.), a rabbit polyclonal anti-PLCgamma1 antibody (Cell Signaling Technology, Inc.), a rabbit polyclonal anti-phospho-p44/42 MAPK (Thr202/Tyr204) antibody (Cell Signaling Technology, Inc.), a rabbit polyclonal anti-p44/42 MAPK antibody (Cell Signaling Technology, Inc.), a mouse monoclonal anti-Flag antibody (SIGMA) or a mouse monoclonal anti-beta-actin antibody (SIGMA). Anti-phospho-EGFR (Ser-967) antibodies were raised against Ser-967-phosphorylated synthetic peptides and purified with the phosphopeptide column. Antigen-antibody complexes were detected using secondary antibodies conjugated to horseradish peroxidase (GE Healthcare Bio-sciences). Protein bands were visualized by ECL Western Blotting Detection Reagents (GE Healthcare Bio-sciences).
as §1

phospho-EGFR (Tyr-992) = test: Phospho-EGFR (Tyr-992) level in A549 cells after RNAi (immunofluorescence, western blot); type: cell-based, human; settings: for phosphorylation level of EGFR Tyr-992, western blot: A549 cells; for phospho-EGFR (Tyr-992), immunofluorescence: serum-starved A549 cells
Method: as §3
Cultured cells were fixed with 4% paraformaldehyde solution for 15 min at 37° C., or 10% Trichloro acetic acid for 15 min on ice. Fixed cells were incubated in PBS(−) containing 0.1% Triton X-100 for 10 min and subsequently washed with PBS(−). Prior to the primary antibody reaction, fixed cells were covered with CAS-BLOCK (ZYMED Laboratories Inc.) for 10 min to block non-specific-antibody binding. Then the cells were incubated with a mouse monoclonal anti-Mps1 (TTK) antibody (Upstate) and a rabbit polyclonal anti-phospho-EGFR (Tyr-992) (Cell Signaling Technology, Inc.), or a rabbit polyclonal anti-phospho-p44/42 MAPK (Thr202/Tyr204) antibody (Cell Signaling Technology, Inc.), or a mouse monoclonal anti-Flag antibody (SIGMA). Antibodies were stained with an anti-mouse secondary antibody conjugated to Alexa Fluor 488 (Molecular Probes) and an anti-rabbit secondary antibody conjugated to Alexa Fluor 594 (Molecular Probes). […] Images were viewed and assessed using a confocal microscope at wavelengths of 488, 594 nm (TCS SP2 AOBS: Leica Microsystems). […]

phospho-EGFR (Ser-967) = test: Phospho-EGFR (Ser-967) level in A549 cells after RNAi (immunofluorescence); type: cell-based, human
Method: as §2
Cultured cells were fixed with 4% paraformaldehyde solution for 15 min at 37° C., or 10% Trichloro acetic acid for 15 min on ice. […] Images were viewed and assessed using a confocal microscope at wavelengths of 488, 594 nm (TCS SP2 AOBS: Leica Microsystems). […]

[6] = listed as RNAi (oligo) against TTK

phosphorylation of active-rhEGFR by TTK (TTK [1]): not inhibited
Compound: COc1cc2ncnc(Nc3cccc(Cl)c3)c2cc1OC [AG1478, tryphostin 4-(3-chloroanilino)-6,7-dimethoxyquinazoline]
cell morphology (A549 cells): became much larger with multiple nuclei
phosphorylation of active-rhEGFR by TTK (TTK [1]; listed as AG1378): detected in the presence of recombinant TTK
autophosphorylation of active-rhEGFR on tyrosine [2]: inhibited
autophosphorylation of active-rhEGFR on tyrosine ([2]; listed as AG1378): not detected

Compound: GTAACAAGCTCACGCAGTTTT (listed as DNA, chemistry not given here) [RNAi-EGFR (oligo)]
cell morphology (A549 cells): became much larger with multiple nuclei
TTK-induced cell proliferation (HEK293 cells [3]; HEK293 transfectants stably expressing TTK, P=0.0032): significantly reduced
proliferation of HEK293 control cells (HEK293 cells [3]; control cells transfected with mock vector, P=0.2439): scarcely reduced
TTK-induced cell invasion through Matrigel (HEK293 cells [4]; TTK-transfected HEK293 cells, P<0.0001): reduced to near the basal level
Invasion of the control cells through Matrigel (HEK293 cells [4]; mock-transfected HEK293 cells): slightly reduced

Compound: CAAGATGTGTTAAAGTGTTTT (listed as DNA, chemistry not given here) [RNAi-TTK (oligo)]
cell morphology (A549 cells): became much larger with multiple nuclei
TTK protein (TTK [5]): Reduction; also recorded: suppression
amount of PLCγ protein (PLCγ1 and p44/42 MAPK): did not affect
amount of p44/42 MAPK protein (PLCγ1 and p44/42 MAPK): did not affect
phospho-PLCγ (Tyr-771) (PLCγ1 and p44/42 MAPK): decrease
phosphorylation of p44/42 MAPK (Thr202/Tyr204) (PLCγ1 and p44/42 MAPK): decrease
phospho-PLCγ (Tyr-771) (PLCγ1 and p44/42 MAPK; [6]): reduced
phosphorylation of p44/42 MAPK (Thr202/Tyr204) (PLCγ1 and p44/42 MAPK; [6]): reduced
phosphorylation level of EGFR Tyr-992, western blot (phospho-EGFR (Tyr-992)): decreased
phosphorylation level of EGFR Tyr-992, western blot (phospho-EGFR (Tyr-992); [6]): reduced
phospho-EGFR (Tyr-992), immunofluorescence (phospho-EGFR (Tyr-992)): significantly decreased
phospho-EGFR (Tyr-992), immunofluorescence (phospho-EGFR (Tyr-992); listed as si-TTK): reduced
levels of phospho-EGFR Ser-967, immunofluorescence (phospho-EGFR (Ser-967)): decreased significantly
levels of phospho-EGFR Ser-967, immunofluorescence (phospho-EGFR (Ser-967); [6]): reduced
